# Tested on: MCF7 cells
# Test: MCF7 cell activity test (CCK8 proliferation inhibition)
# Assay type: cell-based
# Conditions: Homo sapiens, MCF7, 144 h, 6 days incubation
# Protocol: Experimental Example 1: MCF7 cell activity test
# Cell culture: MCF7 cells (culture conditions: MEM medium+20% FBS+1% essential amino acids++1 mg/100 ml insulin, 37° C., 5% CO2). Plating: The cells subcultured into the logarithmic growth phase were collected and transferred into a centrifuge tube, and centrifuged at 800 rpm for 5 min. The cells were resuspended in complete medium and counted. The cells were diluted and adjusted to a final concentration of 30,000 cells/mL. The cells were then seeded into a 96-well plate with 100 μL per well and incubated in an incubator overnight. Administration: Each group of drug solutions was added into the 96-well plate, 100 μL per well, n=3 for each drug concentration. Meanwhile, negative wells (n=6) and blank wells (n=3) were set up. The 96-well plate was incubated in the incubator for further 6 days. CCK8 reagent was added to the 96-well plate, 20 μL per well, and then the plate was placed in the incubator for further 4 h. The absorbance of the solution was measured at a wavelength of 450 nm using an enzyme reader. The proliferation inhibition rate was calculated and the half inhibitory concentration IC50 value was calculated using Graphpad Prism 6.0 software.
row,Structure (SMILES),IC50
1,O=C1CCC(n2ncc3cc(N4CCN(C[C@@H]5CCCC[C@H]5CN5CCN(c6ccc([C@@H]7c8ccc(O)cc8CC[C@@H]7c7ccccc7)cc6)CC5)CC4)ccc32)C(=O)N1 (some centres unmarked) [VI-6],< 100 nM
2,Cn1nc(N2CCC(=O)NC2=O)c2cc(F)c(C3CCN(C[C@@H]4CCCC[C@H]4CN4CCN(c5ccc([C@@H]6c7ccc(O)cc7CC[C@@H]6c6ccccc6)cc5)CC4)C4(CC4)C3)cc21 (some centres unmarked) [VI-18],< 25 nM
3,Cn1c(=O)n(C2CCC(=O)NC2=O)c2cccc(C3CCN(C[C@@H]4CCCC[C@H]4CN4CCN(c5ccc([C@@H]6c7ccc(O)cc7CC[C@@H]6c6ccccc6)cc5)CC4)CC3)c21 (some centres unmarked) [VII-3],< 100 nM
4,"Cn1nc(C2CCC(=O)NC2=O)c2ccc(N3CCN(C[C@@H]4CCCC[C@H]4CN4CCN(c5ccc([C@@H]6c7ccc(O)cc7CC[C@@H]6c6ccccc6)cc5)CC4)CC3)cc21 (stereo partly drawn) [IV-3, 3-(6-(4-(((1R,2R)-2-((4-(4-((1R,2S)-6-hydroxy-2-phenyl-1,2,3,4-tetrahydronaphthalen-1-yl)phenyl)piperazin-1-yl)methyl)cyclohexyl)methyl)piperazin-1-yl)-1-methyl-1H-indazol-3-yl)piperidine-2,6-dione]",< 25 nM
5,"C[C@@H]1CC(O)(c2cc3c(cc2F)c(N2CCC(=O)NC2=O)nn3C)CCN1C[C@@H]1CCCC[C@H]1CN1CCN(c2ccc([C@@H]3c4ccc(O)cc4CC[C@@H]3c3ccccc3)cc2)CC1 (stereo partly drawn) [VI-29, 1-(5-fluoro-6-((2R)-4-hydroxy-1-(((1R, 2R)-2-((4-(4-((1R, 2S)-6-hydroxy-2-phenyl-1,2,3,4-tetrahydronaphthalen-1-yl)phenyl)piperazin-1-yl)methyl)cyclohexyl)methyl)-2-methylpiperidin-4-yl)-1-methyl-1H-indazol-3-yl)dihydropyrimidine-2,4 (1H,3H)-dione]",< 25 nM
6,"O=C1CCC(NC(=O)c2ccc(C3CCN(C[C@@H]4CCCC[C@H]4CN4CCN(c5ccc([C@@H]6c7ccc(O)cc7CC[C@@H]6c6ccccc6)cc5)CC4)CC3)cc2F)C(=O)N1 (stereo partly drawn) [Compound I-67, N-(2,6-dioxopiperidin-3-yl)-2-fluoro-4-(1-(((1R,2R)-2-((4-(4-((1R,2S)-6-hydroxy-2-phenyl-1,2,3,4-tetrahydronaphthalen-1-yl)phenyl)piperazin-1-yl)methyl)cyclohexyl)methyl)piperidin-4-yl)benzamide]",< 100 nM
7,Cn1nc(C2CCC(=O)NC2=O)c2cc(F)c(N3CCN(C[C@@H]4CCCC[C@H]4CN4CCN(c5ccc([C@@H]6c7ccc(O)cc7CC[C@@H]6c6ccccc6)cc5)CC4)CC3)cc21 (some centres unmarked) [IV-1],< 50 nM
8,Cn1c(=O)n(C2CCC(=O)NC2=O)c2ccc(N3CCN(C[C@@H]4CCCC[C@H]4CN4CCN(c5ccc([C@@H]6c7ccc(O)cc7CC[C@@H]6c6ccccc6)cc5)CC4)CC3)cc21 (some centres unmarked) [VII-2],< 100 nM
9,"Cn1nc(C2CCC(=O)NC2=O)c2ccc(N3CCN(C[C@H]4CCCC[C@@H]4CN4CCN(c5ccc([C@@H]6c7ccc(O)cc7CC[C@@H]6c6ccccc6)cc5)CC4)CC3)cc21 (stereo partly drawn) [IV-4, 3-(6-(4-(((1S,2S)-2-((4-(4-((1R,2S)-6-hydroxy-2-phenyl-1,2,3,4-tetrahydronaphthalen-1-yl)phenyl)piperazin-1-yl)methyl)cyclohexyl)methyl)piperazin-1-yl)-1-methyl-1H-indazol-3-yl)piperidine-2,6-dione]",< 100 nM
10,"O=C1CCC(NC(=O)c2ccc(N3CCN(C[C@@H]4CCCC[C@H]4CN4CCN(c5ccc([C@@H]6c7ccc(O)cc7CC[C@@H]6c6ccccc6)cc5)CC4)CC3)cn2)C(=O)N1 (stereo partly drawn) [III-1, N-(2,6-dioxopiperidin-3-yl)-5-(4-(((1R,2R)-2-((4-(4-((1R,2S)-6-hydroxy-2-phenyl-1,2,3,4-tetrahydronaphthalen-1-yl)phenyl)piperazin-1-yl)methyl)cyclohexyl)methyl)piperazin-1-yl)pyridinecarboxamide]",< 25 nM
11,O=C1CCC(n2cnc3cc(C4CCN(C[C@@H]5CCCC[C@H]5CN5CCN(c6ccc([C@@H]7c8ccc(O)cc8CC[C@@H]7c7ccccc7)cc6)CC5)CC4)c(F)cc32)C(=O)N1 (some centres unmarked) [Compound V-5],< 100 nM
12,"O=C1CCC(NC(=O)c2ccc(N3CCN(C[C@H]4CCCC[C@@H]4CN4CCN(c5ccc([C@@H]6c7ccc(O)cc7CC[C@@H]6c6ccccc6)cc5)CC4)CC3)cn2)C(=O)N1 (stereo partly drawn) [III-2, N-(2,6-dioxopiperidin-3-yl)-5-(4-(((1S,2S)-2-((4-(4-((1R,2S)-6-hydroxy-2-phenyl-1,2,3,4-tetrahydronaphthalen-1-yl)phenyl)piperazin-1-yl)methyl)cyclohexyl)methyl)piperazin-1-yl)pyridinecarboxamide]",< 100 nM
13,C[C@@H]1CC(c2cc3c(cc2F)c(N2CCC(=O)NC2=O)nn3C)CCN1C[C@@H]1CCCC[C@H]1CN1CCN(c2ccc([C@@H]3c4ccc(O)cc4CC[C@@H]3c3ccccc3)cc2)CC1 (some centres unmarked) [VI-20],< 25 nM
14,COC1(c2cc3c(cc2F)c(N2CCC(=O)NC2=O)nn3C)CCN(C[C@@H]2CCCC[C@H]2CN2CCN(c3ccc([C@@H]4c5ccc(O)cc5CC[C@@H]4c4ccccc4)cc3)CC2)CC1 [VI-28],< 25 nM
15,O=C1CCC(n2ncc3cc(N4CCN(C[C@@H]5CCCC[C@H]5CN5CCN(c6ccc([C@@H]7c8ccc(O)cc8CC[C@@H]7c7ccccc7)cc6)CC5)CC4)c(F)cc32)C(=O)N1 (some centres unmarked) [VI-5],< 50 nM
16,O=C1CCC(n2cnc3cc(N4CCN(C[C@@H]5CCCC[C@H]5CN5CCN(c6ccc([C@@H]7c8ccc(O)cc8CC[C@@H]7c7ccccc7)cc6)CC5)CC4)ccc32)C(=O)N1 (some centres unmarked) [Compound V-3],< 50 nM
17,Cc1nn(C2CCC(=O)NC2=O)c2ccc(C3CCN(C[C@@H]4CCCC[C@H]4CN4CCN(c5ccc([C@@H]6c7ccc(O)cc7CC[C@@H]6c6ccccc6)cc5)CC4)CC3)cc12 (some centres unmarked) [VI-8],< 50 nM
18,"Cn1nc(C2CCC(=O)NC2=O)c2cc(F)c(C3CCN(C[C@H]4CCCC[C@@H]4CN4CCN(c5ccc([C@@H]6c7ccc(O)cc7CC[C@@H]6c6ccccc6)cc5)CC4)CC3)cc21 (stereo partly drawn) [IV-10, 3-(5-fluoro-6-(1-(((1S,2S)-2-((4-(4-((1R,2S)-6-hydroxy-2-phenyl-1,2,3,4-tetrahydronaphthalen-1-yl)phenyl)piperazin-1-yl)methyl)cyclohexyl)methyl)piperidin-4-yl)-1-methyl-1H-indazol-3-yl)piperidin-2,6-dione]",< 50 nM
19,O=C1CCC(n2cnc3cc(N4CCN(C[C@@H]5CCCC[C@H]5CN5CCN(c6ccc([C@@H]7c8ccc(O)cc8CC[C@@H]7c7ccccc7)cc6)CC5)CC4)c(F)cc32)C(=O)N1 (some centres unmarked) [Compound V-2],< 50 nM
20,C[C@H]1CC(c2cc3c(cc2F)c(N2CCC(=O)NC2=O)nn3C)CCN1C[C@@H]1CCCC[C@H]1CN1CCN(c2ccc([C@@H]3c4ccc(O)cc4CC[C@@H]3c3ccccc3)cc2)CC1 (some centres unmarked) [VI-21],< 50 nM
21,Cc1nc2cc(N3CCN(C[C@@H]4CCCC[C@H]4CN4CCN(c5ccc([C@@H]6c7ccc(O)cc7CC[C@@H]6c6ccccc6)cc5)CC4)CC3)ccc2n1C1CCC(=O)NC1=O (some centres unmarked) [Compound V-1],< 100 nM
22,O=C1CCC(NC(=O)c2ccc(N3CCN(C[C@@H]4CCCC[C@H]4CN4CCN(c5ccc([C@@H]6c7ccc(O)cc7CC[C@@H]6c6ccccc6)cc5)CC4)CC3)cc2F)C(=O)N1 (some centres unmarked) [Compound I-69],< 25 nM
23,Cn1nc(N2CCC(=O)NC2=O)c2cc(F)c(C3CCC(N(C[C@@H]4CCCC[C@H]4CN4CCN(c5ccc([C@@H]6c7ccc(O)cc7CC[C@@H]6c6ccccc6)cc5)CC4)C4CC4)CC3)cc21 (some centres unmarked) [VI-25],< 100 nM
24,"O=C1CCC(NC(=O)c2ccc(C3CCN(C[C@@H]4CCCC[C@H]4CN4CCN(c5ccc([C@@H]6c7ccc(O)cc7CC[C@@H]6c6ccccc6)cc5)CC4)CC3)cn2)C(=O)N1 (stereo partly drawn) [III-3, N-(2,6-dioxopiperidin-3-yl)-5-(1-(((1R,2R)-2-((4-(4-((1R,2S)-6-hydroxy-2-phenyl-1,2,3,4-tetrahydronaphthalen-1-yl)phenyl)piperazin-1-yl)methyl)cyclohexyl)methyl)piperidin-4-yl)pyridinecarboxamide]",< 100 nM
25,Cn1nc(N2CCC(=O)NC2=O)c2cc(F)c(C3CCC(N4CCN(C[C@@H]5CCCC[C@H]5CN5CCN(c6ccc([C@@H]7c8ccc(O)cc8CC[C@@H]7c7ccccc7)cc6)CC5)CC4)CC3)cc21 (some centres unmarked) [VI-24],< 25 nM
26,Cn1nc(N2CCC(=O)NC2=O)c2cc(F)c(N3CCN(C[C@@H]4CCCC[C@H]4CN4CCN(c5ccc([C@@H]6c7ccc(O)cc7CC[C@@H]6c6ccccc6)cc5)CC4)CC3)cc21 [IV-5],< 25 nM
27,Cn1nc(N2CCC(=O)NC2=O)c2cc(F)c(N3CC4(CN(C[C@@H]5CCCC[C@H]5CN5CCN(c6ccc([C@@H]7c8ccc(O)cc8CC[C@@H]7c7ccccc7)cc6)CC5)C4)C3)cc21 [VI-26],< 50 nM
28,"C[C@H]1CC(O)(c2cc3c(cc2F)c(N2CCC(=O)NC2=O)nn3C)CCN1C[C@@H]1CCCC[C@H]1CN1CCN(c2ccc([C@@H]3c4ccc(O)cc4CC[C@@H]3c3ccccc3)cc2)CC1 (stereo partly drawn) [VI-30, 1-(5-fluoro-6-((2S)-4-hydroxy-1-(((1R,2R)-2-((4-(4-((1R,2S)-6-hydroxy-2-phenyl-1,2,3,4-tetrahydronaphthalen-1-yl)phenyl)piperazin-1-yl)methyl)cyclohexyl)methyl)-2-methylpiperidin-4-yl)-1-methyl-1H-indazol-3-yl)dihydropyrimidine-2,4 (1H,3H)-dione]",< 50 nM
29,"Cn1c(=O)n(C2CCC(=O)NC2=O)c2cccc(N3CCN(C[C@@H]4CCCC[C@H]4CN4CCN(c5ccc([C@@H]6c7ccc(O)cc7CC[C@@H]6c6ccccc6)cc5)CC4)CC3)c21 (stereo partly drawn) [VII-1, 3-(4-(4-(((1R,2R)-2-((4-(4-((1R,2S)-6-hydroxy-2-phenyl-1,2,3,4-tetrahydronaphthalen-1-yl)phenyl)piperazin-1-yl)methyl)cyclohexyl)methyl)piperazin-1-yl)-3-methyl-2-oxo-2,3-dihydro-1H-benzo[d]imidazol-1-yl)piperidine-2,6-dione]",< 50 nM

# Source: US20260364185A1, “Estrogen Receptor Modulator and Use Thereof” (JIANGSU VCARE PHARMATECH CO., LTD., priority 2023, published 2026)
